One assay deals with KAT-8 (Homo sapiens (Human), UniProt Q9H7Z6). The experiment in a line: KAT-8 biochemical inhibition assay (SAMDI mass spectrometry). The method in brief: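 Compounds in 2% DMSO pre-incubated with 12.5 nM enzyme in 50 mM Tris pH 8.0 with Tween20, gelatin and 1 mM DTT. Then 1 μM peptide and 5 μM acetyl-CoA were added, 90 min at 25 °C; formic acid stop and SAMDI-TOF mass spectrometry for IC50.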

For a further assay, the target named is KAT-6A (Homo sapiens (Human), UniProt Q92794). In words: KAT-6A biochemical inhibition assay (SAMDI mass spectrometry). The procedure, abridged:
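Enzyme (12.5 nM final) pre-incubated with serially diluted compounds (2% DMSO final) in 50 mM Tris pH 8.0 with Tween20, gelatin and 1 mM DTT. Reaction started with 1 μM peptide substrate and 1 μM acetyl-CoA, run 90 min at 25 °C, quenched with 0.5% formic acid, read by SAMDI-TOF mass spectrometry; IC50 derived.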

The target in a further assay is KAT-5 (Homo sapiens (Human), UniProt Q92993). The experiment in a line: KAT-5 biochemical inhibition assay (SAMDI mass spectrometry). The procedure, abridged: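 KAT-5 at 9 nM final was preincubated with serially diluted compound (2% DMSO) in 50 mM Tris pH 8.0 with 1 mM DTT. Reaction ran with 1 μM peptide substrate and 0.5 μM acetyl-CoA for 90 min at 25° C, was quenched with 0.5% formic acid, and was read by SAMDI-TOF mass spectrometry.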
Sequence of KAT-5 (Q92993 other isoform, or with tags, fused parts or gaps): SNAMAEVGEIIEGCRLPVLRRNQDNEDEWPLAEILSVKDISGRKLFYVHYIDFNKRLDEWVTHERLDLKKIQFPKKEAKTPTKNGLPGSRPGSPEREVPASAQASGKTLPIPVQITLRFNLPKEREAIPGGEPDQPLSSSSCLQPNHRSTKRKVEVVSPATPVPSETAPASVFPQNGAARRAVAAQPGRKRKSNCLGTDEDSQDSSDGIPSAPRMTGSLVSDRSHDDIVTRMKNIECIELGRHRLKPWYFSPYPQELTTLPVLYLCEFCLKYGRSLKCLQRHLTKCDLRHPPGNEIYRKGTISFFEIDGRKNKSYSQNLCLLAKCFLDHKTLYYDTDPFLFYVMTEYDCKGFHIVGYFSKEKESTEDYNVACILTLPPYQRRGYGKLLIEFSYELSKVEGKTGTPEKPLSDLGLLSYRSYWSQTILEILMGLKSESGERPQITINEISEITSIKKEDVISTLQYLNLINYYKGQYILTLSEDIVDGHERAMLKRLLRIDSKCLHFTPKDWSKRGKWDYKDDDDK

Another assay concerns the target KAT-7 (Homo sapiens (Human), UniProt O95251). In words: KAT-7 biochemical inhibition assay (SAMDI mass spectrometry). The method in brief: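 KAT-7 (6 nM) was pre-incubated with serially diluted compound (2% DMSO) in Tris pH 8.0 with DTT. Reaction with 1 μM peptide and 2 μM acetyl-CoA ran 120 min at 25 °C and was stopped with 0.5% formic acid. Acetylation was read by SAMDI-TOF mass spectrometry to give IC50.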

A value given as a limit tells only on which side of the number the result lay.

Sequence of KAT-6A (Q92794 other isoform, or with tags, fused parts or gaps): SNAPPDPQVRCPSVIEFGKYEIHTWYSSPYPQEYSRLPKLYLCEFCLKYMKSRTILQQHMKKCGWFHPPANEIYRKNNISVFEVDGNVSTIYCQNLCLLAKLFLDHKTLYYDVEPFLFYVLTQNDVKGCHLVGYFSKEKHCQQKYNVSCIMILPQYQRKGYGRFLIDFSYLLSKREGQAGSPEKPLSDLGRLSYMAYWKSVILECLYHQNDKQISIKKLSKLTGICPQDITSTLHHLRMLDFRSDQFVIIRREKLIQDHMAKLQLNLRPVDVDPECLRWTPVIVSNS
Sequence of KAT-8 (Q9H7Z6 other isoform, or with tags, fused parts or gaps): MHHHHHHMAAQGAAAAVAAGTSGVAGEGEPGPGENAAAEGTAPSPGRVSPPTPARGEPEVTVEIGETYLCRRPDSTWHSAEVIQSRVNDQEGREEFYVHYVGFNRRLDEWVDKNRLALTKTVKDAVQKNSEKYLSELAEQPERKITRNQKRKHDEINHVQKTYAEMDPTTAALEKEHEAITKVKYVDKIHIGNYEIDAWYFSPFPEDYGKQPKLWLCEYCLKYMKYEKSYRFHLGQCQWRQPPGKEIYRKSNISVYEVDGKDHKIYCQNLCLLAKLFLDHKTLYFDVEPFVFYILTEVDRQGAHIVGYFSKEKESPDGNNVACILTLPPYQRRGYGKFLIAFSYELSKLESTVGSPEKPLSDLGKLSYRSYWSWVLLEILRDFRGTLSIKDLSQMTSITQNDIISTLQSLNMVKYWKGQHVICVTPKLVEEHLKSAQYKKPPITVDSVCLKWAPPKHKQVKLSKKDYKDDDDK
Sequence of KAT-7 (O95251 other isoform, or with tags, fused parts or gaps): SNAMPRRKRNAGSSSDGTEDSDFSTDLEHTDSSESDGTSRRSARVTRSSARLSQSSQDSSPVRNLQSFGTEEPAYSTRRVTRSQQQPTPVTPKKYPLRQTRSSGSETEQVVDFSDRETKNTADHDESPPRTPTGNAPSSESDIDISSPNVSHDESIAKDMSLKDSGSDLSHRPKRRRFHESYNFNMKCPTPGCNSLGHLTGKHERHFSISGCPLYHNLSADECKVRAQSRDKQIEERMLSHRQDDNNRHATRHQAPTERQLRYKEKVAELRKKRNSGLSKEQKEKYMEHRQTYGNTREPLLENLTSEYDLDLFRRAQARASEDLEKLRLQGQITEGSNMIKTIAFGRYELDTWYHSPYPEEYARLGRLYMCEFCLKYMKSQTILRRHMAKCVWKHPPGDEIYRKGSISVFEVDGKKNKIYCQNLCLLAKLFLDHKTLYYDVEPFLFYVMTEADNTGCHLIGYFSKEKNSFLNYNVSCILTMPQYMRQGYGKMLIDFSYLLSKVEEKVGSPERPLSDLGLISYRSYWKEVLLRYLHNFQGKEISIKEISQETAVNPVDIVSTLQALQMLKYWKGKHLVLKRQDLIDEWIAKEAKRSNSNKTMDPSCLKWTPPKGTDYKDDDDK

As a reminder, the IC50 is the midpoint of a concentration-inhibition curve. A low value points to greater potency in that assay. For `CCS(=O)(=O)N1CCC(CS(=O)(=O)NNC(=O)c2cc(-c3cn(C)cn3)cc(Cl)c2F)C1` (stereo not drawn) [Compound I-75], the IC50 against KAT-8 is 10 to 50 µM; against KAT-6A, below 10 µM; against KAT-5 it was below 10 µM; against KAT-7, below 10 µM.
Regarding `Cc1ncn(-c2cc(Cl)c(F)c(C(=O)NNS(=O)(=O)C3CCOCC3)c2)n1` [Compound I-77], the IC50 against KAT-8, against KAT-6A, on KAT-5 and against KAT-7 was 10 to 50 µM throughout.
For the compound `CNC(=O)N1CCC(CS(=O)(=O)NNC(=O)c2cc(-c3cn(C)cn3)cc(Cl)c2F)C1` (stereo not drawn) [Compound I-78], the IC50 against KAT-8 is 10 to 50 µM; against KAT-6A, 10 to 50 µM; against KAT-5, below 10 µM; against KAT-7, below 10 µM.
For the compound `CN1CCC(CS(=O)(=O)NNC(=O)c2cc(-c3cn(C)cn3)cc(Cl)c2F)C1` (stereo not drawn) [Compound I-79], the IC50 against KAT-8 was 10 to 50 µM; against KAT-6A, 10 to 50 µM; at KAT-5 it was 10 to 50 µM; at KAT-7 it was below 10 µM.
With `Cc1nc(-c2cc(Cl)c(F)c(C(=O)NNS(=O)(=O)CC3CCOCC3)c2)co1` [Compound I-80], the IC50 against KAT-8 was 10 to 50 µM; against KAT-6A, below 10 µM; on KAT-5, 10 to 50 µM; on KAT-7 it was 10 to 50 µM.
Regarding `Cc1ncc(-c2cc(Cl)c(F)c(C(=O)NNS(=O)(=O)CC3CCOCC3)c2)[nH]1` [Compound I-81], the IC50 against KAT-8 is 10 to 50 µM; on KAT-6A, below 10 µM; against KAT-5, below 10 µM; against KAT-7, 10 to 50 µM.
As to `CCS(=O)(=O)N1CCCC(CS(=O)(=O)NNC(=O)c2cc(-c3cn(C)cn3)cc(Cl)c2F)C1` (stereo not drawn) [Compound I-82], the IC50 was 10 to 50 µM against KAT-8, below 10 µM against KAT-6A, below 10 µM on KAT-5 and below 10 µM on KAT-7.
As for `Cn1cnc(-c2cc(Cl)c(F)c(C(=O)NNS(=O)(=O)CC3CCN(C(=O)CCO)C3)c2)c1` (stereo not drawn) [Compound I-83], the IC50 on KAT-8 was 10 to 50 µM; against KAT-6A, 10 to 50 µM; against KAT-5, 10 to 50 µM; on KAT-7, below 10 µM.
For `Cn1cnc(-c2cc(Cl)c(F)c(C(=O)NNS(=O)(=O)CC3CCN(S(=O)(=O)C4CC4)C3)c2)c1` (stereo not drawn) [Compound I-84], the IC50 against KAT-8 is 10 to 50 µM; against KAT-6A it was below 10 µM; against KAT-5 it was below 10 µM; against KAT-7 it was below 10 µM.
Regarding `CCCS(=O)(=O)N1CCC(CS(=O)(=O)NNC(=O)c2cc(-c3cn(C)cn3)cc(Cl)c2F)C1` (stereo not drawn) [Compound I-85], the IC50 was 10 to 50 µM against KAT-8, below 10 µM against KAT-6A, below 10 µM against KAT-5 and below 10 µM at KAT-7.
As to `Cn1cnc(-c2cc(Cl)c(F)c(C(=O)NNS(=O)(=O)CC3CCCN(S(=O)(=O)C4CC4)C3)c2)c1` (stereo not drawn) [Compound I-86], the IC50 against KAT-8 is 10 to 50 µM; on KAT-6A it was below 10 µM; against KAT-5 it was below 10 µM; at KAT-7, below 10 µM.
As to `O=C(NNS(=O)(=O)CC1CCCCC1)c1cc(-n2ccnn2)cc(Cl)c1F` [Compound I-87], the IC50 was 10 to 50 µM at KAT-8, below 10 µM on KAT-6A, 10 to 50 µM against KAT-5 and 10 to 50 µM against KAT-7.
Regarding `CCNC(=O)N1CCC(CS(=O)(=O)NNC(=O)c2cc(-c3cn(C)cn3)cc(Cl)c2F)C1` (stereo not drawn) [Compound I-88], the IC50 was 10 to 50 µM against KAT-8, 10 to 50 µM on KAT-6A, below 10 µM at KAT-5 and below 10 µM on KAT-7.
As for `Cn1cnc(-c2cc(Cl)c(F)c(C(=O)NNS(=O)(=O)CC3CCN(C(=O)CO)C3)c2)c1` (stereo not drawn) [Compound I-89], the IC50 against KAT-8 was 10 to 50 µM; against KAT-6A, 10 to 50 µM; at KAT-5 it was 10 to 50 µM; against KAT-7 it was below 10 µM.
Consider `O=C(NNS(=O)(=O)CC1CCOCC1)c1cc(-n2ccnn2)cc(Cl)c1F` [Compound I-90], for which the IC50 on KAT-8, on KAT-6A, against KAT-5 and against KAT-7 was 10 to 50 µM in each case.

The values above are taken from patent US11685732B2, “MYST family histone acetyltransferase inhibitors” (Epizyme, Inc., priority 2017, dated 2023).
